Where a name gives a salt, the structure may show the parent alone. Bounds are passed on as bounds.

This experiment has as its target T1, TLR7/NFKb HEK cells (Homo sapiens, UniProt Q9NYK1).
T1 construct: expressed in transfected cells; host or cells: HEK cells (TLR7/NFKb reporter line)
T1 sequence (Q9NYK1 27-1049): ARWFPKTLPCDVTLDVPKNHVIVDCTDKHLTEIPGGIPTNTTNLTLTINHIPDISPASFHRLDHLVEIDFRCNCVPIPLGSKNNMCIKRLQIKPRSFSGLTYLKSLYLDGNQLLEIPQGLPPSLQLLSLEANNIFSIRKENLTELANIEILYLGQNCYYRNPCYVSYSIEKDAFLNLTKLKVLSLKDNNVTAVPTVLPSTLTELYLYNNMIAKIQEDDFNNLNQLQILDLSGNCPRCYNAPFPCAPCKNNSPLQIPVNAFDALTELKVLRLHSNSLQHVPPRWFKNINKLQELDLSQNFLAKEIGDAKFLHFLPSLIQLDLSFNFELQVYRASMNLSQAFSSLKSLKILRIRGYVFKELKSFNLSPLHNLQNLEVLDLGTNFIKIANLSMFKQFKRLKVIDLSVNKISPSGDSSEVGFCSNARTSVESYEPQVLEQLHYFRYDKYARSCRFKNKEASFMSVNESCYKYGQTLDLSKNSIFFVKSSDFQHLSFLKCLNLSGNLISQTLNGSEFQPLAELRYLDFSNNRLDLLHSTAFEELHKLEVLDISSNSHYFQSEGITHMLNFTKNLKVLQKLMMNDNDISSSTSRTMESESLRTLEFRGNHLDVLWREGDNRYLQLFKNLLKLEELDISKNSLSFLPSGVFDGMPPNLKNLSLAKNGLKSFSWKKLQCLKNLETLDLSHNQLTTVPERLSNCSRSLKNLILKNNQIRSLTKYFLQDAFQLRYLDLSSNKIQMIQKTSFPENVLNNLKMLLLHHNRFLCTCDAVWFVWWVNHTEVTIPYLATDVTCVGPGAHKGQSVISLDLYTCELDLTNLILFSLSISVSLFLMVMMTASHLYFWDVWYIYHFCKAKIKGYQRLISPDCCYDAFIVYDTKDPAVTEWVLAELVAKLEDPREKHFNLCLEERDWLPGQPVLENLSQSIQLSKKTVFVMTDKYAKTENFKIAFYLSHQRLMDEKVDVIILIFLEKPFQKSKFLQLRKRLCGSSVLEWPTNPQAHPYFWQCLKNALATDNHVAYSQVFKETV
Briefly: HEK Cell Assay (TLR7/NFKb reporter, Steady-Glo luciferase readout). Particulars: 30 min compound preincubation, then R*48 agonist for 5 hours, read-out: Potency. The format is cell-based. The procedure, abridged:
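Steady-Glo luminescence after 5 h stimulation with R*48 agonist, following 30 min compound preincubation. Assay run in HEK cells carrying a TLR7/NFKb luciferase reporter, plated at 5000 cells/well and grown 24 h at 37° C (10% CO2) before treatment.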
As for `C[C@H]1C[C@@H](NC(=O)CC2CN(C)C2)CN(c2ccc(C(F)(F)F)c3ncccc23)C1` [Compound 360, N-[(3R,5S)-5-methyl-1-[8-(trifluoromethyl)quinolin-5-yl]piperidin-3-yl]-2-(1-methylazetidin-3-yl)acetamide], the IC50 was under 1 µM. Under `Cc1ncc(N2C[C@@H](C)C[C@@H](NC(=O)CCC(=O)O)C2)c2cccnc12` [Compound 567, N-[(3R,5S)-5-Methyl-1-(8-methyl-[1,7]naphthyridin-5-yl)-piperidin-3-yl]-succinamic acid] stands over 10 µM; under `C[C@H]1C[C@@H](NC(=O)CC2CCN(CC(F)F)CC2)CN(c2ccc(C(F)(F)F)c3ncccc23)C1` [Compound 246, 2-[1-(2,2-difluoroethyl)piperidin-4-yl]-N-[(3R,5S)-5-methyl-1-[8-(trifluoromethyl)quinolin-5-yl]piperidin-3-yl]acetamide], under 1 µM. Under `N[C@H]1C[C@@H](C2CC2)CN(c2ccc(C(F)(F)F)c3ncccc23)C1` (relative stereo) [Compound 331, cis-5-cyclopropyl-1-[8-(trifluoromethyl)quinolin-5-yl]piperidin-3-amine] stands under 1 µM. Next, `CN1CCCC1C(=O)NCC1CCN(c2ccc(C#N)c3ncccc23)CC1` (stereo not drawn) [Compound 418, 1-Methyl-pyrrolidine-2-carboxylic acid [1-(8-cyano-quinolin-5-yl)-piperidin-4-ylmethyl]-amide]: under 1 µM; `C[C@H]1C[C@@H](NC(=O)COCC2CCCO2)CN(c2ccc(C#N)c3nccnc23)C1` (stereo partly drawn) [Compound 166, N-[(3R,5S)-1-(8-cyanoquinoxalin-5-yl)-5-methylpiperidin-3-yl]-2-(oxolan-2-ylmethoxy)acetamide]: under 1 µM. As to `C[C@H]1C[C@@H](NC(=O)CN(C)C)CN(c2ccc(C#N)c3nccnc23)C1` [Compound 32, N-((3R,5S)-1-(8-cyanoquinoxalin-5-yl)-5-methylpiperidin-3-yl)-2-(dimethylamino)acetamide], the IC50 was under 1 µM. Under `C[C@H]1C[C@@H](NC(=O)CO)CN(c2ccc(C(F)(F)F)c3ncccc23)C1` [Compound 240, 2-hydroxy-N-[(3R,5S)-5-methyl-1-[8-(trifluoromethyl)quinolin-5-yl]piperidin-3-yl]acetamide] stands under 1 µM; under `CCC(C)C(=O)N[C@@H]1C[C@H](C)CN(c2ccc(C#N)c3nccnc23)C1` (single isomer, unassigned) [Compound 154], under 1 µM; under `C[C@H]1C[C@@H](NC(=O)C2CCN(C)C2)CN(c2ccc(C#N)c3nccnc23)C1` (stereo partly drawn) [Compound 236, N-[(3R,5S)-1-(8-cyanoquinoxalin-5-yl)-5-methylpiperidin-3-yl]-1-methylpyrrolidine-3-carboxamide], under 1 µM.

With `Cc1cc2c(N3C[C@@H](C)C[C@@H](NC(=O)CO)C3)ccnc2n1C` [Compound 13, N-((3R,5S)-1-(1,2-dimethyl-1H-pyrrolo[2,3-b]pyridin-4-yl)-5-methylpiperidin-3-yl)-2-hydroxyacetamide], the IC50 was over 10 µM.

In the case of `C[C@H]1C[C@@H](NC(=O)CN2CC(O)C2)CN(c2ccc(C(F)F)c3ncccc23)C1` [Compound 308, N-[(3R,5S)-1-[8-(difluoromethyl)quinolin-5-yl]-5-methylpiperidin-3-yl]-2-(3-hydroxyazetidin-1-yl)acetamide], the IC50 was 1 to 10 µM.

Turning to `CCN(CC)C(=O)CCC(=O)N[C@@H]1C[C@H](C(F)(F)F)CN(c2ccc(C#N)c3ncccc23)C1` [Compound 579, N-[(3R,5S)-1-(8-Cyano-quinolin-5-yl)-5-trifluoromethyl-piperidin-3-yl]-N′,N′-diethyl-succinamide], the IC50 was 1 to 10 µM. As for `COCCN[C@@H]1C[C@H](C)CN(c2ccc(C(N)=O)c3ncccc23)C1` [Compound 183, 5-[(3R,5S)-3-[(2-methoxyethyl)amino]-5-methylpiperidin-1-yl]quinoline-8-carboxamide], the IC50 was over 10 µM. Under `C[C@H]1C[C@@H](NC2CCNC2=O)CN(c2ccc(C#N)c3nccnc23)C1` (stereo partly drawn) [Compound 123, 8-[(3S,5R)-3-methyl-5-[(2-oxopyrrolidin-3-yl)amino]piperidin-1-yl]quinoxaline-5-carbonitrile] stands under 1 µM.

`C[C@H]1C[C@@H](NC(=O)C(C)(C)N2CCCCC2)CN(c2ccc(C(F)(F)F)c3ncccc23)C1` [Compound 572]: the IC50 was under 1 µM. Next, `CN(C)CC(=O)N[C@H]1C[C@@H](C(F)(F)F)CN(c2ccc(C#N)c3ncccc23)C1` (racemic) [Compound 426, cis-N-[1-(8-Cyano-quinolin-5-yl)-5-trifluoromethyl-piperidin-3-yl]-2-dimethylamino-acetamide]: under 1 µM; `CC(C(=O)N[C@@H]1C[C@H](C)CN(c2ccc(C(F)(F)F)c3nccnc23)C1)N1CC(F)(F)C1` (stereo partly drawn) [Compound 299, 2-(3,3-difluoroazetidin-1-yl)-N-[(3R,5S)-5-methyl-1-[8-(trifluoromethyl)quinoxalin-5-yl]piperidin-3-yl]propanamide]: 1 to 10 µM; `c1ccc2c(N3CCC(COCCN4CCCCC4)CC3)ccnc2c1` [Compound 6, 4-(4-[[2-(piperidin-1-yl)ethoxy]methyl]piperidin-1-yl)quinoline]: 1 to 10 µM. Next, `C[C@H]1C[C@@H](NC(=O)C2CC(F)(F)C2)CN(c2ccc(C(F)F)c3ncccc23)C1` [Compound 317, N-[(3R,5S)-1-[8-(difluoromethyl)quinolin-5-yl]-5-methylpiperidin-3-yl]-3,3-difluorocyclobutane-1-carboxamide]: over 10 µM; `C[C@H]1C[C@@H](NC(=O)C(N)C(F)(F)F)CN(c2ccc(C#N)c3nccnc23)C1` (single isomer, unassigned) [Compound 113, hydrochloride]: under 1 µM; `CC(C(=O)N[C@@H]1C[C@H](C)CN(c2ccc(C(F)(F)F)c3ncccc23)C1)N1CC(O)C1` (stereo partly drawn) [Compound 285, 2-(3-hydroxyazetidin-1-yl)-N-[(3R,5S)-5-methyl-1-[8-(trifluoromethyl)quinolin-5-yl]piperidin-3-yl]propanamide]: under 1 µM.

Turning to `COCCN[C@@H]1C[C@H](C)CN(c2ccc(C#N)c3nccnc23)C1` [Compound 19, 8-((3R,5S)-3-(2-methoxyethylamino)-5-methylpiperidin-1-yl)quinoxaline-5-carbonitrile], the IC50 is under 1 µM. Turning to `Cc1ncc(N2C[C@@H](C)C[C@@H](NC(=O)CC3CN(C)C3)C2)c2cccnc12` [Compound 556, 2-(1-Methyl-azetidin-3-yl)-N-[(3R,5S)-5-methyl-1-(8-methyl-[1,7]naphthyridin-5-yl)-piperidin-3-yl]-acetamide], the IC50 lay in the range of 1 to 10 µM. Under `C[C@H]1C[C@@H](NC(=O)CC2C3CC2CN(C)C3)CN(c2ccc(C#N)c3nccnc23)C1` (single isomer, unassigned) [Compound 358] stands under 1 µM; under `CC1CC(CN2CCN(C)CC2)CN(c2ccc(C(F)(F)F)c3ncccc23)C1` (single isomer, unassigned) [Compound 534, trans-5-[3-Methyl-5-(4-methyl-piperazin-1-ylmethyl)-piperidin-1-yl]-8-trifluoromethyl-quinoline], 1 to 10 µM. For the molecule `CC(C(=O)N[C@@H]1C[C@H](C)CN(c2ccc(C(F)F)c3ncccc23)C1)N1CC(O)C1` (stereo partly drawn) [Compound 309, N-[(3R,5S)-1-[8-(difluoromethyl)quinolin-5-yl]-5-methylpiperidin-3-yl]-2-(3-hydroxyazetidin-1-yl)propanamide], the IC50 is under 1 µM. Under `C[C@H]1C[C@@H](N)CN(c2ccc(C#N)c3ncncc23)C1` [Compound 74, 5-((3R,5S)-3-Amino-5-methyl-piperidin-1-yl)-quinazoline-8-carbonitrile] stands under 1 µM; under `C[C@H]1C[C@@H](NC(=O)CC(O)C(C)(C)C)CN(c2ccnc3nccnc23)C1` (single isomer, unassigned) [Compound 148], over 10 µM. Under `O=C(NC1CN(c2ccc(C(F)(F)F)c3ncccc23)CC(F)(F)C1)C(O)C1CC1` (stereo not drawn) [Compound 513, 2-Cyclopropyl-N-[5,5-difluoro-1-(8-trifluoromethyl-quinolin-5-yl)-piperidin-3-yl]-2-hydroxy-acetamide] stands 1 to 10 µM.

The values are drawn from patent US10947213B1 (Merck Patent GmbH, priority 2015, dated 2021).
